One block for each compound: values may come before it.
How the values were obtained:
[1] = in vivo; cited from earlier work
From the text: This approach can be utilised for qualitative diagnoses, accurate staging, and evaluation of treatment efficacy. However, the detection rate of SSTR imaging for insulinoma is not high. […] This limited utility is because in tumours, among the five subtypes of SSTRs (SSTR1-SSTR5), radionucli ...

[2] = In vitro stability in fetal bovine serum; format: in vitro ADME; conditions: 37°C, 0 h
[3] = test system: INS-1 insulinoma xenograft; assay: In vivo blocking experiment with unlabelled liraglutide (biodistribution); set-up: species or system BALB/c nude mice; conditions: 100 µg unlabelled liraglutide i.v. 30 min before approx. 100 µCi tracer, 90 min, p<0.05, N = 3
Protocol: (§1) A total of 24 nude mice were each subcutaneously injected in the armpit of the right upper limb with 100 µl of a suspension of INS-1 cells (containing approximately 10^7 cells per 100 µl). The nude mice were reared under conventional sterile conditions and given 5% dextrose injections as drinking water (Shanghai Changzheng Fumin Jinshan Pharmaceutical, Shanghai, China). Their blood glucose levels were monitored every 2–3 days with a glucometer (Accu-Chek Integra integrated blood glucose meter, Roche, Berlin, Germany), and all measured blood glucose levels were at least 3 mmol/L.
In this experiment, 100 µl of liraglutide solution containing 100 µg of unlabelled liraglutide, was injected into the tail veins of each of 3 nude mice with insulinoma. Half an hour later, 100 µl of ^125I-liraglutide solution containing approximately 100 µCi of ^125I-liraglutide was injected into the tail vein of each mouse. To create an unblocked experimental group that corresponded with this blocked group, 100 µl of ^125I-liraglutide solution containing approximately 100 µCi of ^125I-liraglutide was injected into the tail veins of each of 3 more nude mice with insulinoma. These six nude mice with insulinoma were sacrificed by cervical dislocation at 90 min after the ^125I-liraglutide injection. First, blood was collected from the heart and various organs and tissues were isolated; the isolated samples were then placed into tubes that were impervious to γ radiation and weighed. For each tube, the radioactivity in counts per minute was then measured by a γ counter. The results were presented in terms of %ID/g. A histogram of %ID/g for various organs at the 90 min time point in the blocked and unblocked groups was plotted.

[4] = test system: INS-1 insulinoma xenograft; assay: In vivo distribution of radioactivity across organs in nude mouse insulinoma model; set-up: species or system BALB/c nude mice; conditions: 90 min after injection of approx. 100 µCi, from %ID/g, mean ± SD, N = 3
Protocol: as §1
Six nude mice each received a 100 µl injection containing approximately 100 µCi of ^125I-liraglutide. At 90 min and 360 min after this injection, 3 mice were sacrificed by cervical dislocation. First, blood was collected from the heart; next, isolated various organs and tissues, including the heart, lungs, liver, stomach, kidneys, spleen, small intestine, and pancreas, as well as muscle tissue and the tumour; the isolated samples were then placed into tubes that were impervious to γ radiation and weighed. For each tube, the radioactivity in counts per minute was then measured by a γ counter. The results were presented in terms of %ID/g (the percentage of the total injected dose of radioactivity per gram of tissue). Histograms of %ID/g for various organs at the 90 min and 360 min time points were plotted.

[5] = cited from earlier work
[6] = biological target: GLP-1 receptors; set-up: method as in PMID 23652208; conditions: Rin-m5f insulinoma cells, earlier exendin-4 imaging study of the authors; cited from earlier work

Compound: Glucagon-like peptide-1 [GLP-1]
serum half-life [1]: less than 2 min

intact peptide in fetal bovine serum [2]: 92.9%
Compound: CCCCCCCCCCCCCCCC(=O)N[C@@H](CCC(=O)NCCCC[C@H](NC(=O)[C@H](C)NC(=O)[C@H](C)NC(=O)[C@H](CCC(N)=O)NC(=O)CNC(=O)[C@H](CCC(=O)O)NC(=O)[C@H](CC(C)C)NC(=O)[C@H](Cc1ccc(O)c(I)c1)NC(=O)[C@H](CO)NC(=O)[C@H](CO)NC(=O)[C@@H](NC(=O)[C@H](CC(=O)O)NC(=O)[C@H](CO)NC(=O)[C@@H](NC(=O)[C@H](Cc1ccccc1)NC(=O)[C@@H](NC(=O)CNC(=O)[C@H](CCC(=O)O)NC(=O)[C@H](C)NC(=O)[C@@H](N)Cc1c[nH]cn1)[C@@H](C)O)[C@@H](C)O)C(C)C)C(=O)N[C@@H](CCC(=O)O)C(=O)N[C@@H](Cc1ccccc1)C(=O)N[C@H](C(=O)N[C@@H](C)C(=O)N[C@@H](Cc1c[nH]c2ccccc12)C(=O)N[C@@H](CC(C)C)C(=O)N[C@H](C(=O)N[C@@H](CCCNC(=N)N)C(=O)NCC(=O)N[C@@H](CCCNC(=N)N)C(=O)NCC(=O)O)C(C)C)[C@@H](C)CC)C(=O)O [125I-liraglutide]
radioactivity (%ID/g) of the lungs after blocking [3]: significantly decreased | radioactivity (%ID/g) of the pancreas after blocking [3]: significantly decreased | radioactivity (%ID/g) of the tumour after blocking [3]: significantly reduced | T/NT ratio, tumour to muscle tissue [4]: 4.83±1.30 | T/NT ratio, tumour to pancreatic tissue [4]: 2.73±0.80

Compound: CCCCCCCCCCCCCCCC(=O)N[C@@H](CCC(=O)NCCCC[C@H](NC(=O)[C@H](C)NC(=O)[C@H](C)NC(=O)[C@H](CCC(N)=O)NC(=O)CNC(=O)[C@H](CCC(=O)O)NC(=O)[C@H](CC(C)C)NC(=O)[C@H](Cc1ccc(O)cc1)NC(=O)[C@H](CO)NC(=O)[C@H](CO)NC(=O)[C@@H](NC(=O)[C@H](CC(=O)O)NC(=O)[C@H](CO)NC(=O)[C@@H](NC(=O)[C@H](Cc1ccccc1)NC(=O)[C@@H](NC(=O)CNC(=O)[C@H](CCC(=O)O)NC(=O)[C@H](C)NC(=O)[C@@H](N)Cc1cnc[nH]1)[C@@H](C)O)[C@@H](C)O)C(C)C)C(=O)N[C@@H](CCC(=O)O)C(=O)N[C@@H](Cc1ccccc1)C(=O)N[C@H](C(=O)N[C@@H](C)C(=O)N[C@@H](Cc1c[nH]c2ccccc12)C(=O)N[C@@H](CC(C)C)C(=O)N[C@H](C(=O)N[C@@H](CCCNC(=N)N)C(=O)NCC(=O)N[C@@H](CCCNC(=N)N)C(=O)NCC(=O)O)C(C)C)[C@@H](C)CC)C(=O)O [liraglutide]
in vivo half-life [5]: up to 13 h

Compound: Exendin-4
IC50 [6]: 0.35 to 2.81 nM | Kd [6]: 56.6 nM
